Data on three compounds can be found in ChEMBL document CHEMBL4184337, “Discovery of Orally Bioavailable, Quinoline-Based Aldehyde Dehydrogenase 1A1 (ALDH1A1) Inhibitors with Potent Cellular Activity” (J Med Chem, 2018).

Data set [1] relates to Mus musculus. As to the kind of experiment: Cmax in CD1 mouse at 2 mg/kg, iv measured at 5 mins by LC-MS/MS method. It is filed as ADME, organism-based. On the set-up: dose 2 mg/kg, route intravenous. Particulars: in vivo.
For data set [2], the system named is Mus musculus. As to the kind of experiment: Cmax in CD1 mouse at 10 mg/kg, po measured at 5 mins by LC-MS/MS method. It is filed as ADME, organism-based. Set-up: dose 10 mg/kg, route oral. Particulars: in vivo.
In data set [3] the test system is Mus musculus. Kind of data set: Oral bioavailability in CD1 mouse at 10 mg/kg by LC-MS/MS method. Type of data set: ADME, organism-based. The note with it: in vivo.
Data set [4] is described as follows: Permeability of the compound by PAMPA. Type of data set: ADME. (In general: PAMPA measures passive passage across an artificial lipid membrane.)
A short description of data set [5]: Apparent permeability across apical to basolateral side in human Caco2 cells. Type of data set: ADME, cell-based. Particulars: caco-2. For orientation: Passage across Caco-2 layers is used to estimate intestinal permeability.
The nature of data set [6]: Apparent permeability across basolateral to apical side in human Caco2 cells. It is filed as ADME, cell-based. Particulars: caco-2.
A short description of data set [7]: Solubility of compound. Type of data set: physicochemical.
The test system of data set [8] is Rattus norvegicus. Kind of data set: Cmax in Sprague-Dawley rat at 2 mg/kg, iv measured at 5 mins by LC-MS/MS method. Type of data set: ADME, organism-based. Set-up: dose 2 mg/kg, route intravenous. Particulars: in vivo.
The test system of data set [9] is Rattus norvegicus. Kind of data set: Cmax in Sprague-Dawley rat at 10 mg/kg, po measured at 5 mins by LC-MS/MS method. Type of data set: ADME, organism-based. Set-up: dose 10 mg/kg, route oral. The note with it: in vivo.
Data set [10] in a line: AUC (0 to infinity) in Sprague-Dawley rat at 2 mg/kg, iv by LC-MS/MS method. Type of data set: ADME, organism-based. Particulars: in vivo. On the set-up: dose 2 mg/kg, time infinity, route intravenous.
Data set [11] is described as follows: AUC (0 to infinity) in Sprague-Dawley rat at 10 mg/kg, po by LC-MS/MS method. It is filed as ADME, organism-based. On the set-up: dose 10 mg/kg, route oral, time infinity. Particulars: in vivo.
Data set [12] in a line: Volume of distribution at steady state in Sprague-Dawley rat at 2 mg/kg, iv by LC-MS/MS method. Particulars: in vivo, read-out: Vdss. Type of data set: ADME, organism-based.
Data set [13] relates to Rattus norvegicus. Kind of data set: Oral bioavailability in Sprague-Dawley rat at 10 mg/kg by LC-MS/MS method. It is filed as ADME, organism-based. The note with it: in vivo.

Regarding `CS(=O)(=O)N1CCN(C(=O)c2cnc3ccc(F)cc3c2N2CCC(C#N)(c3ccccc3)CC2)CC1`, the maximum concentration (Cmax) in the data set on Mus musculus [1] worked out at 2350 ng/mL; in the data set on Mus musculus [2] it was 1234 ng/mL. This compound gave a F in the data set with Mus musculus [3] of 44%. In data set [4], the permeability was determined as 725 ×10⁻⁶ cm/s. In addition, the Papp came out at 11.4 ×10⁻⁶ cm/s in data set [5] and 17.2 ×10⁻⁶ cm/s in data set [6].
As to `COc1ccc(S(=O)(=O)c2cnc3ccc(OC)cc3c2N2CCC3(CC2)OCCO3)cc1`, in [7], the solubility is under 1 µg/mL.
As to `CS(=O)(=O)N1CCN(C(=O)c2cnc3ccc(F)cc3c2-c2ccc(C3(C#N)CC3)cc2)CC1`, the Cmax in the data set on Mus musculus [1] amounted to 1997 ng/mL; in the data set on Mus musculus [2] it was 1530 ng/mL; in the data set with Rattus norvegicus [8], 2587 ng/mL; in the data set with Rattus norvegicus [9], 1980 ng/mL. Moreover, the AUC(0-inf) was found to be 3160 ng·h/mL in data set [10] and 7540 ng·h/mL in [11]. In data set [12], the Vd came to 0.7 L/kg. The F in the data set on Mus musculus [3] is recorded as 76%; in the data set with Rattus norvegicus [13], 48%. Also, the permeability in data set [4] is 388 ×10⁻⁶ cm/s. In addition, the Papp in [5] was 5.76 ×10⁻⁶ cm/s; in [6], 22.4 ×10⁻⁶ cm/s.

A word on the Cmax: it is the peak of the concentration-time curve. Broadly, the Papp is the rate of passage across a membrane or cell layer, normalised by area and donor concentration. Broadly, the solubility is the dissolved amount per volume that the medium holds. Lower therefore signals little dissolved substance. A word on the AUC(0-inf): it is the area under the concentration-time curve extrapolated to infinity. Higher therefore signals more exposure.
